Measured values as given in article PMC5867641, “Function-Oriented Synthesis of Marine Phidianidine Derivatives as Potential PTP1B Inhibitors with Specific Selectivity” (Marine Drugs, 2018).
Read-outs that look alike come from different tables or passages of the source. Blank lines part the entries; values can stand above or below the compound they belong to.

What was measured:
[1] = molecular target: T1, PTP1B (Homo sapiens, UniProt P18031); assay: PTP1B inhibition assay with p-nitrophenyl phosphate (pNPP) as substrate; conditions: for % Inhibition (20 μM) on PTP1B: 20 μM compound, 2% DMSO; for inhibition at 20 µM: read-out: % Inhibition (20 μM) on PTP1B; for PTP1B inhibitory activity, in words: screened at 20 μM
T1 sequence (P18031 1-435): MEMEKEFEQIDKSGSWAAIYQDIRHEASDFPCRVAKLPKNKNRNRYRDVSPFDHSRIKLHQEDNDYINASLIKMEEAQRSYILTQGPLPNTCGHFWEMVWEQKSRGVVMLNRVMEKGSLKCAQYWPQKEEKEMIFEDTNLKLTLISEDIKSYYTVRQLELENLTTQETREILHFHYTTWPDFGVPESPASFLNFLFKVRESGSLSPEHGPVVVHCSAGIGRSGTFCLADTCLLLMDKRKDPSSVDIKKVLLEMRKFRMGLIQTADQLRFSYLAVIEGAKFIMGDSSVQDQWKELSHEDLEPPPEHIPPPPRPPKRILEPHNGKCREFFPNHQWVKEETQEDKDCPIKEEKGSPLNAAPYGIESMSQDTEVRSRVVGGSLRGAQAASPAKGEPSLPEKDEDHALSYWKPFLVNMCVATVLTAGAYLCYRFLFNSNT

[2] = molecular target: T2, T-cell protein tyrosine phosphatase (TCPTP) (Homo sapiens, UniProt P17706); assay: TCPTP inhibition assay (selectivity); type: biochemical; conditions: for inhibition at 20 µM / % Inhibition (20 μM) on TCPTP: 20 μM compound, 2% DMSO
T2 sequence (P17706 1-415): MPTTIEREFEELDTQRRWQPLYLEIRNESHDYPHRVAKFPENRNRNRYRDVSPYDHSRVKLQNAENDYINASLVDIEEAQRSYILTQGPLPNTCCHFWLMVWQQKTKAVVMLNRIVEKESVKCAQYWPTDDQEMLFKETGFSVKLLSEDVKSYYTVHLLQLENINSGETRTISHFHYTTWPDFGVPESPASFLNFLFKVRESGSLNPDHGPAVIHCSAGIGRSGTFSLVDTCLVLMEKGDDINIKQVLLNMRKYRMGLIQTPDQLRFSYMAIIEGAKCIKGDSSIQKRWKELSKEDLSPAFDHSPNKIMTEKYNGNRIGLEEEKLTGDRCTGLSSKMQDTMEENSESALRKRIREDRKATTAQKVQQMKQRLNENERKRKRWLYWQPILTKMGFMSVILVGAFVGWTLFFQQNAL
Method: The selectivity of all the PTP1B inhibitory compounds was also evaluated against TCPTP.

[3] = read-out: IC50 on PTP1B, pNPP substrate, dose-response run when inhibition >50% at 20 μM

Structure (SMILES): CCCCC(=O)ON=C(N)Cc1c[nH]c2ccccc12 [13h]
- IC50 [1, 3]: > 20 µM

Structure (SMILES): NC(=NOC(=O)Cc1c[nH]c2ccccc12)c1ccc(Cl)cc1 [9c]
- % Inhibition (20 μM) on PTP1B ([1]; pNPP substrate): 5.2 ± 1.8%

Structure (SMILES): CCc1ccc(-c2nc(Cc3c[nH]c4ccccc34)no2)cc1 [14a]
- IC50 [1]: 13.5 ± 0.6 µM
- inhibition at 20 µM [2]: 9.22%

Structure (SMILES): NC(Cc1c[nH]c2ccccc12)=NOC(=O)c1ccccc1F [13d]
- IC50 [1, 3]: > 20 µM

Structure (SMILES): COc1ccc(C(=O)ON=C(N)Cc2c[nH]c3ccccc23)cc1 [13f]
- IC50 [1, 3]: > 20 µM

Structure (SMILES): COc1ccc(C(=O)ON=C(N)Cc2c[nH]c3ccccc23)c(Br)c1 [13g]
- IC50 [1, 3]: > 20 µM

Structure (SMILES): NC(Cc1c[nH]c2ccccc12)=NOC(=O)c1ccc(C(F)(F)F)cc1 [13e]
- IC50 [1, 3]: > 20 µM

Structure (SMILES): Fc1ccc(-c2noc(Cc3c[nH]c4ccccc34)n2)cc1 [10b]
- % Inhibition (20 μM) on PTP1B ([1]; pNPP substrate): 19.8 ± 0.1%

Structure (SMILES): CCCCCCc1ccc(-c2nc(Cc3c[nH]c4ccccc34)no2)cc1 [14c]
- IC50 [1, 3]: 4.9 ± 0.8 µM
- % Inhibition (20 μM) on TCPTP [2]: 54.18%

Structure (SMILES): c1ccc(-c2noc(Cc3c[nH]c4ccccc34)n2)cc1 [10a]
- % Inhibition (20 μM) on PTP1B ([1]; pNPP substrate): 2.4 ± 1.2%

Structure (SMILES): CCCCCCc1ccc(C(=O)ON=C(N)Cc2c[nH]c3ccccc23)cc1 [13c]
- IC50 [1, 3]: > 20 µM

Structure (SMILES): c1ccc(-c2nc(Cc3c[nH]c4ccccc34)no2)nc1 [14o]
- IC50 [1, 3]: > 20 µM

Structure (SMILES): CCc1ccc(C(=O)ON=C(N)Cc2c[nH]c3ccccc23)cc1 [13a]
- IC50 [1, 3]: > 20 µM

Structure (SMILES): Clc1ccc(-c2noc(Cc3c[nH]c4ccccc34)n2)cc1 [10c]
- % Inhibition (20 μM) on PTP1B ([1]; pNPP substrate): 40.0 ± 7.6%

Structure (SMILES): NC(=NOC(=O)Cc1c[nH]c2ccccc12)c1ccc([N+](=O)[O-])cc1 [9d]
- % Inhibition (20 μM) on PTP1B ([1]; pNPP substrate): 9.8 ± 7.1%

Structure (SMILES): COc1ccc(-c2nc(Cc3c[nH]c4ccccc34)no2)cc1 [14f]
- IC50 [1, 3]: > 20 µM
- PTP1B inhibitory activity, in words [1]: no activity

Structure (SMILES): O=[N+]([O-])c1ccc(-c2noc(Cc3c[nH]c4ccccc34)n2)cc1 [10d]
- % Inhibition (20 μM) on PTP1B ([1]; pNPP substrate): 44.5 ± 0.3%

Structure (SMILES): CCc1ccc(-c2noc(Cc3c[nH]c4ccccc34)n2)cc1 [10e]
- IC50 [1]: 16.8 µM
- inhibition at 20 µM [1]: 50.5 ± 1.1%
- inhibition at 20 µM [2]: 15.8%

Structure (SMILES): NC(=NOC(=O)Cc1c[nH]c2ccccc12)c1ccccc1 [9a]
- % Inhibition (20 μM) on PTP1B ([1]; pNPP substrate): 7.3 ± 6.8%

Structure (SMILES): CCc1ccc(C(N)=NOC(=O)Cc2c[nH]c3ccccc23)cc1 [9e]
- % Inhibition (20 μM) on PTP1B ([1]; pNPP substrate): 23.4 ± 3.7%

Structure (SMILES): NC(Cc1c[nH]c2ccccc12)=NOC(=O)CCCCBr [13i]
- IC50 [1, 3]: > 20 µM

Structure (SMILES): NC(=NOC(=O)Cc1c[nH]c2ccccc12)c1ccc(F)cc1 [9b]
- % Inhibition (20 μM) on PTP1B ([1]; pNPP substrate): 14.0 ± 4.3%

Next, values leading:

- IC50 [1, 3]: > 20 µM
Structure (SMILES): COc1ccc(-c2nc(Cc3c[nH]c4ccccc34)no2)c(Br)c1 [14g]

- IC50 [1, 3]: 7.1 ± 0.1 µM
- % Inhibition (20 μM) on TCPTP [2]: 50.31%
Structure (SMILES): CCCCc1ccc(-c2nc(Cc3c[nH]c4ccccc34)no2)cc1 [14b]

- IC50 [1, 3]: 9.7 ± 1.7 µM
- % Inhibition (20 μM) on TCPTP [2]: 38.74%
Structure (SMILES): Clc1cccc2[nH]cc(Cc3nc(Cc4c[nH]c5ccccc45)no3)c12 [14u]

- inhibition at 20 µM [1]: 23.5 ± 2.6%
Structure (SMILES): N=C(N)NCCCCCNc1noc(Cc2c[nH]c3ccccc23)n1 [Phidianidine B (2), phidianidine B, reference compound]

- IC50 [1, 3]: > 20 µM
- PTP1B inhibitory activity, in words [1]: no activity
Structure (SMILES): Fc1ccccc1-c1nc(Cc2c[nH]c3ccccc23)no1 [14d]

- IC50 [1, 3]: > 20 µM
- PTP1B inhibitory activity, in words [1]: lack of activity
Structure (SMILES): c1ccc2c(Cc3noc(C4CCCC4)n3)c[nH]c2c1 [14m]

- IC50 [1, 3]: > 20 µM
Structure (SMILES): Fc1ccc2[nH]cc(Cc3nc(Cc4c[nH]c5ccccc45)no3)c2c1 [14q]

- IC50 [1, 3]: 5.3 ± 0.7 µM
- % Inhibition (20 μM) on TCPTP [2]: 11.68%
- TCPTP inhibitory activity, in words ([2]; at the concentration of 20 μM): lowest inhibitory percentage
Structure (SMILES): c1ccc2c(Cc3noc(C4CCCCC4)n3)c[nH]c2c1 [14n]

- IC50 [1, 3]: > 20 µM
Structure (SMILES): ClC(Cl)c1nc(Cc2c[nH]c3ccccc23)no1 [14k]

- IC50 [1, 3]: 7.4 ± 0.1 µM
- % Inhibition (20 μM) on TCPTP [2]: 34.51%
Structure (SMILES): Brc1ccc2[nH]cc(Cc3nc(Cc4c[nH]c5ccccc45)no3)c2c1 [14s]

- IC50 [1, 3]: > 20 µM
- PTP1B inhibitory activity, in words [1]: disappearance of the inhibitory activity
Structure (SMILES): CC(=O)OCCCCc1nc(Cc2c[nH]c3ccccc23)no1 [14i]

- IC50 [1, 3]: > 20 µM
- PTP1B inhibitory activity, in words [1]: disappearance of the inhibitory activity
Structure (SMILES): CCCCc1nc(Cc2c[nH]c3ccccc23)no1 [14h]

- IC50 [1, 3]: 8.6 ± 1.5 µM
- % Inhibition (20 μM) on TCPTP [2]: 25.52%
Structure (SMILES): c1ccc2c(Cc3noc(C4CCC4)n3)c[nH]c2c1 [14l]

- IC50 [1, 3]: > 20 µM
Structure (SMILES): FC(F)(F)c1ccc(-c2nc(Cc3c[nH]c4ccccc34)no2)cc1 [14e]

- IC50 [1, 3]: > 20 µM
Structure (SMILES): CC(C)c1nc(Cc2c[nH]c3ccccc23)no1 [14j]
